This is an account of results in PMC5996347, “2-Mercapto-Quinazolinones as Inhibitors of Type II NADH Dehydrogenase and Mycobacterium tuberculosis: Structure–Activity Relationships, Mechanism of Action and Absorption, Distribution, Metabolism, and Excretion Characterization” (ACS Infectious Diseases, 2018).

In series [1] the test system is M. tuberculosis H37Rv. As to the kind of experiment: microbe, parasite or virus in culture. To be noted: Mycobacterium tuberculosis, read-out: 7H9-ADC MIC. It is filed as cell-based.
Series [2] is classed as in vitro ADME. Particulars: female, CD1, mouse, 0.5 μM, pH 7.4. The procedure: Test compound (0.5 μM) was incubated with female CD1 mouse liver microsomes (Xenotech LLC; 0.5 mg/mL, 50 mM potassium phosphate buffer, pH 7.4), and the reaction started with addition of excess NADPH (8 mg/mL, 50 mM potassium phosphate buffer, pH 7.4). Immediately, at time zero, and then at 3, 6, 9, 15, and 30 min, an aliquot (50 μL) of the incubation mixture was removed and mixed with acetonitrile (100 μL) to stop the reaction. Internal standard was added to all samples; the samples were centrifuged to sediment precipitated protein, and the plates were then sealed prior to UPLC-MS/MS analysis using a Quattro Premier XE (Waters Corporation, USA). XLfit (IDBS, UK) was used to calculate the exponential decay and consequently the rate constant (k) from the ratio of peak area of test compound to internal standard at each time point. The rate of intrinsic clearance (Cli) of each test compound was then calculated using the following calculation. [drawing 1] where V (mL/mg protein) is the incubation volume/mg protein added and microsomal protein yield is taken as 52.5 mg protein/g liver. Verapamil (0.5 μM) was used as a positive control to confirm acceptable assay performance.

A short description of another series: physchem. To be noted: for solubility kinetic: water, kinetic from dmso stock. It is filed as physicochemical. The procedure: The aqueous solubility of the test compounds was measured using laser nephelometry. Compounds were subject to serial dilution from 10 to 0.5 mM in DMSO. An aliquot was then mixed with Milli-Q water to obtain an aqueous dilution plate with a final concentration range of 250–12 μM, with a final DMSO concentration of 2.5%. Triplicate aliquots were transferred to a flat bottomed polystyrene plate which was immediately read on the NEPHELOstar (BMG Lab Technologies). The amount of laser scatter caused by insoluble particulates (relative nephelometry units, RNU) was plotted against compound concentration using a segmental regression fit, with the point of inflection being quoted as the compounds aqueous solubility (μM).

For series [3], the system named is M. tuberculosis H37Rv. As to the kind of experiment: H37Rv MIC in GAST medium. It is filed as cell-based, Mycobacterium tuberculosis. Particulars: Mycobacterium tuberculosis, H37RV; read-out: GAST MIC.
Series [4] can be described thus: Calculated properties (StarDrop).
In series [5] the target is T1, recombinant MBP-MtNdh (MTb NDH-2) (Mycobacterium tuberculosis, UniProt P95160).
T1 construct: The ORF corresponding to Rv1854c was codon optimized for E. coli; made in house; host or cells: E. coli BL21 (DE3) pLysS
T1 sequence (P95160 whole entry): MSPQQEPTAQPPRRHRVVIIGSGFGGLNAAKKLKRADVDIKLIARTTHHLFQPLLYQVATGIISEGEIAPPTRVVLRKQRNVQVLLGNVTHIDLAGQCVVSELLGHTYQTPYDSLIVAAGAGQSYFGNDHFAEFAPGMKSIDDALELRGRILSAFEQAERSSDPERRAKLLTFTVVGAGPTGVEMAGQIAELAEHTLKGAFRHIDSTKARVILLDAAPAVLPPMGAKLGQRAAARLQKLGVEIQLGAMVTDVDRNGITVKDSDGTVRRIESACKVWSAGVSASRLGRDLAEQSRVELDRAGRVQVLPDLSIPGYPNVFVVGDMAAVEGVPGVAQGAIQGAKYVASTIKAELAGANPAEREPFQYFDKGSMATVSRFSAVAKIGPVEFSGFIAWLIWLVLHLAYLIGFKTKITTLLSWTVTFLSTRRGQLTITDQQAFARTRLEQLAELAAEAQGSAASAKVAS
As to the kind of experiment: Ndh activity assay (NADH oxidation at 340 nm). Particulars: NADH 250 μM, Q2 40 μM; mean ± SD, Figure 6 inset; read-out: IC50 against MBP-MtNdh. It counts as biochemical.

The structures appear in SMILES notation. In brackets after ≈: the same amount, converted by molar mass.

In the case of `O=C(CSc1nc2ccc(F)cc2c(=O)[nH]1)NC1CCC(F)(F)CC1` [Compound 26, N-(4,4-Difluorocyclohexyl)-2-((6-fluoro-4-oxo-3,4-dihydroquinazolin-2-yl)thio)acetamide], the MIC was 0.8 µM (≈ 0.297 µg/mL) in the series with M. tuberculosis H37Rv [1] and 0.6 µM (≈ 0.223 µg/mL) with M. tuberculosis H37Rv [3]. Moreover, in series [2], the “Microsomal Cli, mouse” value amounted to 2.2 mL/min/g. Further, the kinetic solubility (commonly solubility judged after dilution from a stock solution rather than from solid) in “physchem” was 55 µM (≈ 20.4 µg/mL).

On to `O=C(CSc1nc2ccccc2c(=O)[nH]1)NC1CCC1` [Compound 6, N-Cyclobutyl-2-((4-oxo-3,4-dihydroquinazolin-2-yl)thio)acetamide], for which the MIC in the series on M. tuberculosis H37Rv [1] and in the series with M. tuberculosis H37Rv [3] was 1.6 µM (≈ 0.463 µg/mL) throughout. Moreover, the “Microsomal Cli, mouse” value in series [2] is given as 1.8 mL/min/g. This compound also showed a solubility (kinetic) in the series “physchem” of 219 µM (≈ 63.4 µg/mL).

As for `O=C(CSc1ncc2ccccc2n1)NC1CCCCC1` [Compound 21, N-Cyclohexyl-2-(quinazolin-2-ylthio)acetamide], the MIC with M. tuberculosis H37Rv [1] and with M. tuberculosis H37Rv [3] was 50 µM (≈ 15.1 µg/mL) throughout.

For `O=C(CSc1nc2c(c(=O)[nH]1)CCC2)NC1CCCCC1` [Compound 24, N-Cyclohexyl-2-((4-oxo-4,5,6,7-tetrahydro-3H-cyclopenta[d]pyrimidin-2-yl)thio)acetamide], the MIC in the series with M. tuberculosis H37Rv [1] is 1.2 µM (≈ 0.369 µg/mL); with M. tuberculosis H37Rv [3] it was 1.6 µM (≈ 0.492 µg/mL). Besides, in series [2], the “Microsomal Cli, mouse” value is 1.2 mL/min/g. In addition, the solubility (kinetic) in “physchem” was 250 µM (≈ 76.9 µg/mL).

`Cc1csc2nc(SCC(=O)NC3CCCCC3)[nH]c(=O)c12` [Compound 3]: the MIC was > 50 µM in the series with M. tuberculosis H37Rv [1] and 43 µM (≈ 14.5 µg/mL) with M. tuberculosis H37Rv [3]. Besides, the PFI in series [4] is 4.7. The IC50 (usually the concentration that inhibits the measured activity by half) in series [5] was 210 ± 25 nM.

Turning to `CN(C(=O)CSc1nc2ccccc2c(=O)[nH]1)C1CCCCC1` [Compound 14, N-Cyclohexyl-N-methyl-2-((4-oxo-3,4-dihydroquinazolin-2-yl)thio)acetamide], the MIC in the series on M. tuberculosis H37Rv [1] and in the series with M. tuberculosis H37Rv [3] was 50 µM (≈ 16.6 µg/mL) throughout. The “Microsomal Cli, mouse” value in series [2] is 13 mL/min/g. In the series “physchem”, this compound returned a Kinetic solubility of 250 µM.

Take `O=C(CSc1nc2ccccc2c(=O)[nH]1)NC1CCCC1` [Compound 5, N-Cyclopentyl-2-((4-oxo-3,4-dihydroquinazolin-2-yl)thio)acetamide]: the MIC was found to be 1.8 µM (≈ 0.546 µg/mL) in the series on M. tuberculosis H37Rv [1] and 1 µM (≈ 0.303 µg/mL) in the series with M. tuberculosis H37Rv [3]. Also, the “Microsomal Cli, mouse” value in series [2] came to 2.5 mL/min/g. The kinetic solubility in “physchem” amounted to 101 µM (≈ 30.6 µg/mL).

Regarding `Cn1c(SCC(=O)NC2CCCCC2)nc2ccccc2c1=O` [Compound 20, N-Cyclohexyl-2-((3-methyl-4-oxo-3,4-dihydroquinazolin-2-yl)thio)acetamide], the MIC with M. tuberculosis H37Rv [1] and in the series on M. tuberculosis H37Rv [3] was 50 µM (≈ 16.6 µg/mL) each time. The “Microsomal Cli, mouse” value in series [2] turned out to be 11 mL/min/g.

For `O=C(CSc1nc2c(c(=O)[nH]1)CCCC2)NC1CCCCC1` [Compound 23, N-Cyclohexyl-2-((4-oxo-3,4,5,6,7,8-hexahydroquinazolin-2-yl)thio)acetamide], the MIC in the series with M. tuberculosis H37Rv [1] amounted to 1.6 µM (≈ 0.514 µg/mL); in the series on M. tuberculosis H37Rv [3], 1.2 µM (≈ 0.386 µg/mL). Also, the “Microsomal Cli, mouse” value in series [2] was 6.6 mL/min/g. The compound also gave a solubility (kinetic) in “physchem” of 250 µM (≈ 80.4 µg/mL).

Consider `CC(Sc1nc2ccccc2c(=O)[nH]1)C(=O)N(C)C1CCCCC1` (stereo not shown) [Compound 16, N-Cyclohexyl-N-methyl-2-((4-oxo-3,4-dihydroquinazolin-2-yl)thio)propanamide], for which the MIC in the series on M. tuberculosis H37Rv [1] and in the series on M. tuberculosis H37Rv [3] was 50 µM (≈ 17.3 µg/mL) each time. The “Microsomal Cli, mouse” value in series [2] stood at 50 mL/min/g. The kinetic solubility in “physchem” was 250 µM (≈ 86.4 µg/mL).

With `O=C(CSc1nc2ccccc2c(=O)[nH]1)NCC1CCCCC1` [Compound 10, N-(Cyclohexylmethyl)-2-((4-oxo-3,4-dihydroquinazolin-2-yl)thio)acetamide], the values for the MIC with M. tuberculosis H37Rv [1] and in the series with M. tuberculosis H37Rv [3] were 0.3 µM (≈ 0.0994 µg/mL) and 0.2 µM (≈ 0.0663 µg/mL), respectively. Also, in series [2], the “Microsomal Cli, mouse” value amounted to 5.9 mL/min/g.

Take `O=C(CCc1nc2ccccc2c(=O)[nH]1)NC1CCCCC1` [Compound 19, N-Cyclohexyl-3-(4-oxo-3,4-dihydroquinazolin-2-yl)propanamide]: the MIC in the series on M. tuberculosis H37Rv [1] and in the series with M. tuberculosis H37Rv [3] was 50 µM (≈ 15 µg/mL) throughout. In addition, the “Microsomal Cli, mouse” value in series [2] was found to be 1.6 mL/min/g. In “physchem”, this compound displayed a solubility (kinetic) of 250 µM (≈ 74.8 µg/mL).

With `Cc1nc(SCC(=O)NC2CCCCC2)nc(O)c1C` [Compound 25, N-Cyclohexyl-2-((4,5-dimethyl-6-oxo-1,6-dihydropyrimidin-2-yl)thio)acetamide], the results for the MIC in the series with M. tuberculosis H37Rv [1] and in the series with M. tuberculosis H37Rv [3] were 12.5 µM (≈ 3.69 µg/mL) and 6.3 µM (≈ 1.86 µg/mL), respectively. In addition, the “Microsomal Cli, mouse” value in series [2] is on record as 1.1 mL/min/g. This compound also showed a solubility (kinetic) in “physchem” of 250 µM (≈ 73.9 µg/mL).

For the compound `O=C(COc1nc2ccccc2c(=O)[nH]1)NC1CCCCC1` [Compound 18, N-Cyclohexyl-2-((4-oxo-3,4-dihydroquinazolin-2-yl)oxy)acetamide], the MIC with M. tuberculosis H37Rv [1] was 50 µM (≈ 15.1 µg/mL); in the series with M. tuberculosis H37Rv [3], 25 µM (≈ 7.53 µg/mL).

`O=C(CSc1nc2cnccc2c(=O)[nH]1)NC1CCC(F)(F)CC1` [Compound 27, N-(4,4-Difluorocyclohexyl)-2-((4-oxo-3,4-dihydropyrido[3,4-d]pyrimidin-2-yl)thio)acetamide]: the MIC with M. tuberculosis H37Rv [1] turned out to be 2.5 µM (≈ 0.886 µg/mL); in the series with M. tuberculosis H37Rv [3], 9.4 µM (≈ 3.33 µg/mL). Besides, in series [2], the “Microsomal Cli, mouse” value worked out at 1.6 mL/min/g. The compound further had a kinetic solubility in the series “physchem” of 250 µM (≈ 88.6 µg/mL).

On to `O=C(CSc1nc2ccccc2c(=O)[nH]1)NC1CCCCCC1` [Compound 4, N-Cycloheptyl-2-((4-oxo-3,4-dihydroquinazolin-2-yl)thio)acetamide], for which the results for the MIC in the series on M. tuberculosis H37Rv [1] and with M. tuberculosis H37Rv [3] were 0.6 µM (≈ 0.199 µg/mL) and 0.3 µM (≈ 0.0994 µg/mL), respectively. The “Microsomal Cli, mouse” value in series [2] amounted to 6.4 mL/min/g. The compound also registered a kinetic solubility in the series “physchem” of 39 µM (≈ 12.9 µg/mL).

Turning to `O=C(CSc1nc2ccccc2c(=O)[nH]1)NC1CCCCC1(F)F` (stereo not shown) [Compound 8, N-(2,2-Difluorocyclohexyl)-2-((4-oxo-3,4-dihydroquinazolin-2-yl)thio)acetamide], the MIC came to 12.5 µM (≈ 4.42 µg/mL) in the series on M. tuberculosis H37Rv [1] and 9.4 µM (≈ 3.32 µg/mL) in the series on M. tuberculosis H37Rv [3]. In addition, the “Microsomal Cli, mouse” value in series [2] is 2.3 mL/min/g. In “physchem”, the solubility (kinetic) was 219 µM (≈ 77.4 µg/mL).

As to `CC(Sc1nc2ccccc2c(=O)[nH]1)C(=O)NC1CCCCC1` (stereo not shown) [Compound 15, N-Cyclohexyl-2-((4-oxo-3,4-dihydroquinazolin-2-yl)thio)propanamide], the MIC in the series with M. tuberculosis H37Rv [1] and in the series on M. tuberculosis H37Rv [3] was 50 µM (≈ 16.6 µg/mL) each time. Also, the “Microsomal Cli, mouse” value in series [2] is 7.5 mL/min/g. The compound also came in with a Kinetic solubility in “physchem” of 250 µM.

On to `Nc1nc(SCC(=O)NC2CCCCC2)nc2ccccc12` [Compound 22, 2-((4-Aminoquinazolin-2-yl)thio)-N-cyclohexylacetamide], for which the MIC in the series on M. tuberculosis H37Rv [1] and with M. tuberculosis H37Rv [3] was 50 µM (≈ 15.8 µg/mL) each time.

In the case of `O=C(CSc1nc2ccccc2c(=O)[nH]1)NC1CCCC(F)(F)C1` (stereo not shown) [Compound 9, N-(3,3-Difluorocyclohexyl)-2-((4-oxo-3,4-dihydroquinazolin-2-yl)thio)acetamide], the MIC with M. tuberculosis H37Rv [1] and with M. tuberculosis H37Rv [3] was 4.7 µM (≈ 1.66 µg/mL) in each case. For the same compound, the “Microsomal Cli, mouse” value in series [2] was 2.9 mL/min/g. This compound also registered a solubility (kinetic) in “physchem” of 187 µM (≈ 66.1 µg/mL).

`O=C(CNc1nc2ccccc2c(=O)[nH]1)NC1CCCCC1` [Compound 17, N-Cyclohexyl-2-((4-oxo-3,4-dihydroquinazolin-2-yl)amino)acetamide]: the MIC in the series on M. tuberculosis H37Rv [1] and with M. tuberculosis H37Rv [3] was 50 µM (≈ 15 µg/mL) throughout. In addition, the “Microsomal Cli, mouse” value in series [2] is 2.1 mL/min/g. The compound also showed a kinetic solubility in the series “physchem” of 250 µM (≈ 75.1 µg/mL).
